Measurements as given in ChEMBL document CHEMBL1201862, “PubChem BioAssay data set” (2004).
Activity calls are given as the source filed them.

How the values were obtained:
[1] = target: T1, Mannose-6-phosphate isomerase (Homo sapiens, UniProt P34949); experiment: MPI enzyme activity inhibition – biochemical, fluorescence intensity, coupled assay, primary screen (AID 1209)
T1 sequence (P34949 whole entry): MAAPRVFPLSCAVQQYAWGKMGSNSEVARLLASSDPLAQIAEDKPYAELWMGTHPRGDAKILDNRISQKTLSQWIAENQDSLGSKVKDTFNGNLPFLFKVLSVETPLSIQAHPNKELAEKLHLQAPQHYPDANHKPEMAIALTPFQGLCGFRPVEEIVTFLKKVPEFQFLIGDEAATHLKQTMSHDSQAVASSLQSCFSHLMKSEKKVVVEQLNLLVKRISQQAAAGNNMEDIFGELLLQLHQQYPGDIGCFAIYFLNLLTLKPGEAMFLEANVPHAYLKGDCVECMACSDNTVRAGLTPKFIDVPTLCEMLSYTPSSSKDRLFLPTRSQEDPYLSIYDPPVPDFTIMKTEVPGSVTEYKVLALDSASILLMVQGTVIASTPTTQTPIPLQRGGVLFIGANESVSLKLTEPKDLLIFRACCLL

[2] = target: Voltage-gated inwardly rectifying potassium channel KCNH2 (Homo sapiens, UniProt Q12809); experiment: concentration-dependent hERG rescue from blockers – cell-based, thallium flux, dose response (AID 2121); type: ADME
Voltage-gated inwardly rectifying potassium channel KCNH2, sequence (Q12809 whole entry): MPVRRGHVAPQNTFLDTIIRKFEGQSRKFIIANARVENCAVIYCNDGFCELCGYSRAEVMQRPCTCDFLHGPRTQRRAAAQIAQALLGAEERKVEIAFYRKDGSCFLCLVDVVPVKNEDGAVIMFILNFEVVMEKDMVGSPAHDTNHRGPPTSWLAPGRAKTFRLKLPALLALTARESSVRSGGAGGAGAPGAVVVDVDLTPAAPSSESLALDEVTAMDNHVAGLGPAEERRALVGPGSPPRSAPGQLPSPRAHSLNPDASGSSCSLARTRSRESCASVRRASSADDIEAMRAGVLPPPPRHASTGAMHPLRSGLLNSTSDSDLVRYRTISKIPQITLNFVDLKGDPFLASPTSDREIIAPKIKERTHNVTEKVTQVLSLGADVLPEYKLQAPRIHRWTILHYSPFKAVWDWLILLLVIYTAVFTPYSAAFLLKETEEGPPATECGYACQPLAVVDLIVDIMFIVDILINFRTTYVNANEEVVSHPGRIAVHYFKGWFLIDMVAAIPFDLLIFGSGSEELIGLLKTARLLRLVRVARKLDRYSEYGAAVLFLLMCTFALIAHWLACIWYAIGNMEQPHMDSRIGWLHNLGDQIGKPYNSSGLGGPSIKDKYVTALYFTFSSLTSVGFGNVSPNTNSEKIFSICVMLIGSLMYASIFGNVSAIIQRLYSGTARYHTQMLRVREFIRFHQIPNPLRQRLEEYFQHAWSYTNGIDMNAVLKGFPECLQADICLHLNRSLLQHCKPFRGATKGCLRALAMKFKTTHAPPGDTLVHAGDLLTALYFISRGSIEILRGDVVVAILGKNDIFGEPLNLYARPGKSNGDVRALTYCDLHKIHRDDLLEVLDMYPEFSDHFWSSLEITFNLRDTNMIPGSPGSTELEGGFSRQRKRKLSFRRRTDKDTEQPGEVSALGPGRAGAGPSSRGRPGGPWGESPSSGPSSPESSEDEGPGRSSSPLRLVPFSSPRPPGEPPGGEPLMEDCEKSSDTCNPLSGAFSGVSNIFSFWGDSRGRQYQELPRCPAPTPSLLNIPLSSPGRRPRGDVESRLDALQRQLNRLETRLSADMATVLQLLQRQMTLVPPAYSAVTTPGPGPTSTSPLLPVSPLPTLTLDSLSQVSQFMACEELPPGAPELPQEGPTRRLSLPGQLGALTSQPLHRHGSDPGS

[3] = target: T1, Mannose-6-phosphate isomerase; experiment: MPI inhibition at elevated mannose 6-phosphate – biochemical, fluorescence intensity, high mannose 6-phosphate, primary screen (AID 1220)
[4] = HIV-1 Vif–A3G interaction blockers – biochemical, TR-FRET, GST-Vif 1-94, biotin-A3G peptide, dose response retest, primary screen (AID 1117319); type: functional;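 also: TR-FRET signal of purified GST-Vif binding a biotinylated A3G peptide; inhibitors lower the FRET signal by blocking Vif and A3G binding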
[5] = viability loss in THP-1 monocytes – THP-1 cells, cytotoxicity control for Vif-APOBEC3G degradation inhibitor project, dose response (AID 1117359); type: functional; conditions: THP-1
[6] = HGIII-sPLA2 enzyme inhibition potency – biochemical, QFRET, IC50, dose response (AID 743457);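 also: green fluorescence rise as the enzyme cleaves BODIPY PC-A2 in liposomes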
[7] = rise of 2N DNA cells, HeLa – IC50, dose response (AID 1117349); type: functional, cell-based
[8] = CellTiter-Glo luminescence survival assay, SW480 colon tumor line, concentration-response curve, half-maximal inhibitory concentration (AID 1117338); type: functional
[9] = RKO cell viability reduction, dose response, CellTiter-Glo luminescence (AID 1117322); type: functional
[10] = cytotoxicity toward HCT116 cells – cell-based, CellTiter-Glo luminescence, IC50, dose response (AID 1117332); type: functional; conditions: HCT-116
[11] = SNU-C1 cell viability reduction, dose response, CellTiter-Glo luminescence (AID 1117323); type: functional, cell-based
[12] = cytotoxicity toward Colo320 cells – cell-based, CellTiter-Glo luminescence, IC50, dose response (AID 1117334); type: functional; conditions: COLO 320
[13] = rise of 4N DNA cells, HeLa – IC50, dose response (AID 1117351); type: functional, cell-based
[14] = cytotoxicity toward HT-29 cells – cell-based, CellTiter-Glo luminescence, IC50, dose response (AID 1117330); type: functional
[15] = Reduced DLD-1 viability, concentration-response, CellTiter-Glo luminescence (AID 1117352); type: functional
[16] = A Cell Based Secondary Assay To Explore Cytotoxicity of Compounds that Sensitize Mycobacterium Tuberculosis to Beta-Lactam Antibiotics.; type: functional
[17] = Luminescence Cell-Based Dose Retest to Confirm Inhibitors of Cancer Stem Cells. [Related pubchem assays (depositor defined):AID2717, AID2721]; type: functional; conditions: Homo sapiens
Cytochrome P450 2C19 = Cytochrome P450 2C19 (Homo sapiens, UniProt P33261); experiment: Cytochrome panel assay with activity outcomes. Panel member name: p450-cyp2c19 Compounds with AC50 equal or less than 10 uM are considered active; type: functional; conditions: read-out: AC50
Cytochrome P450 2C19, sequence (P33261 whole entry): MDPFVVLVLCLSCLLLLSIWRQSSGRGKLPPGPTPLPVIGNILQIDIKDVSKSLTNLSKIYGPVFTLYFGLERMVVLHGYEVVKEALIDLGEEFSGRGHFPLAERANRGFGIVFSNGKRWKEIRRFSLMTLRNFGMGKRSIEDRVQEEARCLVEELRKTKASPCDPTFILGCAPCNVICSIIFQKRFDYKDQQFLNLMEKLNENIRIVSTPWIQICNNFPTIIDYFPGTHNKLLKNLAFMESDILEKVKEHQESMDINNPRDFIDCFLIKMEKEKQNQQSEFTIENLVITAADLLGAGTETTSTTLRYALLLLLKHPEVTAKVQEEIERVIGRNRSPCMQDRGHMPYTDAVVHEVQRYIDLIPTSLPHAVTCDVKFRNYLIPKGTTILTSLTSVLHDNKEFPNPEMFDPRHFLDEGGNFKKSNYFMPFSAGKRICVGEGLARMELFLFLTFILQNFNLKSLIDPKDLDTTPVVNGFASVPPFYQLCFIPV

Cytochrome P450 1A2 = target: T2, Cytochrome P450 1A2 (Homo sapiens, UniProt P05177);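 also: PubChem cytochrome P450 panel assay, CYP1A2 panel member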
T2 sequence (P05177 whole entry): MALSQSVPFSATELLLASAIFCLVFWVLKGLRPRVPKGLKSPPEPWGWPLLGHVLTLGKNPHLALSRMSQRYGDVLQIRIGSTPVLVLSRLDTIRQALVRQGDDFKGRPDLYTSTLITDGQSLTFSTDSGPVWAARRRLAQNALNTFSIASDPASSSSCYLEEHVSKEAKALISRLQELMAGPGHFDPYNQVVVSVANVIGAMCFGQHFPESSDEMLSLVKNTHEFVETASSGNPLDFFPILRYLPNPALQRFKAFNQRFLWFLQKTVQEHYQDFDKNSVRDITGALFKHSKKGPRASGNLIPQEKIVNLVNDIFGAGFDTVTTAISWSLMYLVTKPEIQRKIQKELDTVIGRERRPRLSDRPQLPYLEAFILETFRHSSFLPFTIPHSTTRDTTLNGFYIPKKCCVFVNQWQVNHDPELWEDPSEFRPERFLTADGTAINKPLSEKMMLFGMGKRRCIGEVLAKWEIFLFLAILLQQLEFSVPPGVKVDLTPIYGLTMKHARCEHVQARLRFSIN

Cytochrome P450 2C9 = Cytochrome P450 2C9 (Homo sapiens, UniProt P11712)
Cytochrome P450 2C9, sequence (P11712 whole entry): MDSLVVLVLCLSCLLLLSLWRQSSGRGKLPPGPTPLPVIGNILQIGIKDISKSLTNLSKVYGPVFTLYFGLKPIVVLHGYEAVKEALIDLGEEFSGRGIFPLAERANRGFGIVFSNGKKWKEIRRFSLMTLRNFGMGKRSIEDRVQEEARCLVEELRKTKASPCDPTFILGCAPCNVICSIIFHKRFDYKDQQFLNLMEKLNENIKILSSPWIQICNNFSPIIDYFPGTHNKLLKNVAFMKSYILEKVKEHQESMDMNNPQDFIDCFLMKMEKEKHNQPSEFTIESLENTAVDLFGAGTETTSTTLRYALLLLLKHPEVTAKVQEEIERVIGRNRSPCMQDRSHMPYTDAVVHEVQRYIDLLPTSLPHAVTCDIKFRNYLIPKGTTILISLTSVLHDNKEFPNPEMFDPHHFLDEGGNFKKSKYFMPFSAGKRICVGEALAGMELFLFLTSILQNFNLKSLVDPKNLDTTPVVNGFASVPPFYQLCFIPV

[18] = luciferase reporter signal suppression in cells – H4 neuroglioma cells, luminescence, dose response (AID 1990); type: functional, cell-based
[19] = luciferase reporter signal reduction – luminescence, H4-C neuroglioblastoma cells, dose response (AID 2458); type: functional, cell-based;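 also: H4 neuroglioblastoma cells stably carrying a luciferase reporter gene fusion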
cells = type: functional, cell-based
[20] = Luminescence Cell-Based Dose Response HTS to Identify Inhibitors of 5'UTR Stem-Loop Driven Prion Protein mRNA Translation in H4 Neuroglioblastoma Cells. [Related pubchem assays: 1827 (Project Summary), 1813 (Primary HTS)]; type: functional
[21] = target: T3, Heat shock factor protein 1 (Mus musculus, UniProt P38532); experiment: decrease of HSF1-responsive luciferase luminescence – cell-based, NIH3T3, dose retest, confirmation (AID 2382); type: functional;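 also: NIH3T3 fibroblasts with HSF1-driven luciferase reporter stressed by proteasome inhibitor MG132; luminescence from HSF1-driven luciferase expression after 8 hours of MG132 stress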
T3 sequence (P38532 whole entry): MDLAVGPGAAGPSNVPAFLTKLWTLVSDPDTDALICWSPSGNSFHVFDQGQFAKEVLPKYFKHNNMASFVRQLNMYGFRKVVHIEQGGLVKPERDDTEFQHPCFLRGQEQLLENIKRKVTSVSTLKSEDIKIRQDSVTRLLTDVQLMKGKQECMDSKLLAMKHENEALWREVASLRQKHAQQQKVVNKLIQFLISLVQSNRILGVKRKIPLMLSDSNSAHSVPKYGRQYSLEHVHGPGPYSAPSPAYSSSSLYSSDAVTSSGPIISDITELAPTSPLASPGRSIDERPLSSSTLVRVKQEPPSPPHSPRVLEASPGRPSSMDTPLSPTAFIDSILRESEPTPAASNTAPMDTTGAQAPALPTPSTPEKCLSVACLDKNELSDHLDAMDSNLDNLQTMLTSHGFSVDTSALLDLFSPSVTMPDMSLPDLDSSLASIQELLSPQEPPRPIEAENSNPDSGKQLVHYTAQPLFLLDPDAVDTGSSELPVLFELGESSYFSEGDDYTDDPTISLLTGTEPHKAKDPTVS

[22] = alpha-synuclein stem-loop luciferase translation blockers – H4 neuroglioma cells, luminescence, confirmation (AID 1988); type: functional, cell-based
[23] = alpha-synuclein stem-loop translation blockers – luminescence, H4 neuroglioblastoma cells, dose confirmation, confirmation (AID 2454); type: functional, cell-based;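 also: H4 neuroglioblastoma cells carrying an alpha-synuclein 5'UTR luciferase reporter; potency for inhibition of the luciferase signal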
[24] = HEK-293T viability loss after treatment – luminescence, T-cell screen hits, cytotoxicity control for TCR NF-kB inhibitor project, dose response (AID 489026); type: functional, cell-based;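 also: cells exposed to compound about 14 hours before the viability readout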
[25] = CCR5-tropic HIV-1 fusion blockers – cell-based, CCR5-tropic Env, dose response (AID 2279); type: functional
[26] = target: T4, Microphthalmia-associated transcription factor (Homo sapiens, UniProt O75030); experiment: reducers of TRPM1 reporter luminescence, concentration series – cell-based, SK-MEL-5, cherry-picked, set 3, MITF inhibitor project, dose response (AID 493073); type: functional;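 also: SK-MEL-5 melanoma cells with luciferase driven by the MITF target TRPM1 promoter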
T4 sequence (O75030 whole entry): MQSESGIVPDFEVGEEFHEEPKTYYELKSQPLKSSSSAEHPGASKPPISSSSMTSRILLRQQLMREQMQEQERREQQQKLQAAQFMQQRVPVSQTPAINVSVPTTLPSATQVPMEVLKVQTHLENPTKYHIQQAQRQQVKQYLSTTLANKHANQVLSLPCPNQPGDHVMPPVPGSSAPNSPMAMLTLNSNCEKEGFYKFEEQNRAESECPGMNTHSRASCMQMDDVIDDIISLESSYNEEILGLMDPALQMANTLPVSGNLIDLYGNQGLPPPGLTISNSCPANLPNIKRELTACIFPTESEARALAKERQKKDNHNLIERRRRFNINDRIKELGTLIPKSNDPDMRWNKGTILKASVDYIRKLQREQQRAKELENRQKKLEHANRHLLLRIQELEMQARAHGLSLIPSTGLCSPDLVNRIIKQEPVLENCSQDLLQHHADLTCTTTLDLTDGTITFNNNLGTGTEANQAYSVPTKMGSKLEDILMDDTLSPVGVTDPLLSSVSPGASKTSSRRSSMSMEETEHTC

For `O=C(NC(=S)Nc1nc2c(s1)CSc1ccccc1-2)c1ccccc1`, which IC50 [1] is on record?
The IC50 was > 50 µM (not active).

What about the EC50 [2] of the same compound?
Its EC50 is 5.11 µM (active).

And the IC50 [3]?
Its IC50 is > 50 µM (not active).

With `N#Cc1ccccc1NC(=O)CNc1ccc(Cl)c(C(F)(F)F)c1` as the compound, how does the IC50 [4] read?
The IC50 was > 100 µM (active).

For `Cc1cc(C)cc(N2C(=O)CC(Sc3nnc[nH]3)C2=O)c1` (centres undefined), which IC50 [1] is on record?
Its IC50 is > 50 µM (not active).

With `CCOC(=O)C1CCN(C(=O)c2ccc3snnc3c2)CC1` as the compound, how does the CC50 [5] read?
Its CC50 is > 40 µM (active).

For `Cc1ccc2c(c1)c1c3n2CCNC3CCC1` (centres undefined), which IC50 [6] is on record?
Its IC50 is > 122 µM (inactive).

And the IC50 [7]?
The IC50 was > 10 µM (inactive).

And the IC50 [8]?
Its IC50 is > 20 µM (inactive).

And the IC50 [9]?
Its IC50 is > 20 µM (inactive).

What about the IC50 [10] of the same compound?
Its IC50 is > 20 µM (inactive).

What about the IC50 [11] of the same compound?
Its IC50 is 2.48 µM (active).

And the IC50 [12]?
Its IC50 is > 20 µM (inactive).

And the IC50 [13]?
The IC50 was > 10 µM (inactive).

What about the IC50 [14] of the same compound?
Its IC50 is > 20 µM (inactive).

And the IC50 [15]?
The IC50 was > 20 µM (inactive).

What does the source list for `CC(C)(C)c1ccc(OCC(=O)N/N=C/c2cc(Br)ccc2OC(=O)c2ccco2)cc1`?
CC50 [16]: 15 µM (active); AC50 [17]: 2.29 µM (active); AC50 (Cytochrome P450 2C19): 1.26 µM (inconclusive); AC50 (Cytochrome P450 1A2): 5.01 µM (inconclusive); AC50 (Cytochrome P450 2C9): inconclusive

For `Cc1nn(-c2ccccc2Cl)c(Cl)c1/C=N/Nc1nc2ccccc2s1`, which EC50 [18] is on record?
The EC50 was < 0.1 µM (active).

And the EC50 [19]?
Its EC50 is 0.086 µM (active).

What about the EC50 (cells) of the same compound?
The EC50 was 0.036 µM (active).

What about the EC50 [20] of the same compound?
Its EC50 is < 0.1 µM (active).

What about the EC50 [21] of the same compound?
Its EC50 is < 0.16 µM (active).

And the EC50 [22]?
The EC50 was < 0.1 µM (active).

And the EC50 [23]?
The EC50 was 0.1 µM (active).

What about the IC50 [24] of the same compound?
Its IC50 is > 80 µM (inactive).

For `COc1cc(/C=N/NS(=O)(=O)c2ccc3ccccc3c2)ccc1OCc1ccc(C(=O)O)cc1`, which EC50 [18] is on record?
Its EC50 is 9.11 µM (inconclusive).

What about the EC50 [20] of the same compound?
Its EC50 is 10.5 µM (active).

And the EC50 [22]?
Its EC50 is 7.05 µM (active).

And the IC50 [25]?
Its IC50 is 23.6 µM (active).

What about the AC50 [26] of the same compound?
The AC50 was 4.78 µM (active).
